Source: paper PMC12647759 (Scientific Reports, 2025)
“And” between values parts separate entries of the source, which are not always exact repeats. Equal values may be shown once.

Target: T1, human PLCβ4 (Homo sapiens, UniProt Q15147)
T1 construct: expressing the full-length polypeptides of human PLCε, PLCβ4, PLCδ1 and PLCγ1 as FLAG fusions; made in house; host or cells: Expi293F cells
T1 sequence (Q15147 1-1175): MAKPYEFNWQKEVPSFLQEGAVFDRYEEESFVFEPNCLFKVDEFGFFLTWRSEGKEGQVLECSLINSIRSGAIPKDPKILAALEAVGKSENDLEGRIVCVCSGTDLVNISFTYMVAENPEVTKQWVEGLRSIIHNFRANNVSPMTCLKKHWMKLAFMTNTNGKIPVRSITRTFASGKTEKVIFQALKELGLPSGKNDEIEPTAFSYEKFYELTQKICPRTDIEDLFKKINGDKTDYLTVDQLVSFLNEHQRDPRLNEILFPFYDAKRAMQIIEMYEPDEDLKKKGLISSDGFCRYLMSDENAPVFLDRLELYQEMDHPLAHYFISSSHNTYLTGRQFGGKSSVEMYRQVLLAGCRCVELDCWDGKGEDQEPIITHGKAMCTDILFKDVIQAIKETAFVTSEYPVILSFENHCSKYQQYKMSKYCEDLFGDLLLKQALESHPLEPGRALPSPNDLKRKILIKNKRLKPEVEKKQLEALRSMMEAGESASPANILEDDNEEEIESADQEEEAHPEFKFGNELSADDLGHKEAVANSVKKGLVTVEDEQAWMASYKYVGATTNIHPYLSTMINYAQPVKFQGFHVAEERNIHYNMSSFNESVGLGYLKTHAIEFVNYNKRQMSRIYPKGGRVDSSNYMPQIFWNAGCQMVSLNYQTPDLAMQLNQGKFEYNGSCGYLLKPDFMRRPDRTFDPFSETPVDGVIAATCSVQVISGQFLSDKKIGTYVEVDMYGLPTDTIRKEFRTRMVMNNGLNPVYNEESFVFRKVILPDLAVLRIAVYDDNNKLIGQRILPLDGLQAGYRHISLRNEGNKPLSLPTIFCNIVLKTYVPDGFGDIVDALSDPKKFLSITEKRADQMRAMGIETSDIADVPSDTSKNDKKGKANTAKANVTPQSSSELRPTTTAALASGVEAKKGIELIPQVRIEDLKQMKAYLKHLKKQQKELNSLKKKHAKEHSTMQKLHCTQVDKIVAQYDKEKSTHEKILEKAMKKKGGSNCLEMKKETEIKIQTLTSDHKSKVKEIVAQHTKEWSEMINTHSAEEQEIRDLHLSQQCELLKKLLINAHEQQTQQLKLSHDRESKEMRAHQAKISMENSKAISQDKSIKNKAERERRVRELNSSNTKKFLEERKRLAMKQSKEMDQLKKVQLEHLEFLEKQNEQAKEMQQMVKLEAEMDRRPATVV
Assay: In vitro PLC assay using fluorogenic substrate Compound 1, PLCβ4
Assay type: biochemical
Conditions: for IC50: purified PLCβ4, fluorogenic substrate Compound 1, read-out: IC50, inhibition of PLCβ4 (hydrolysis of Compound 1)
Method: Ten µl of 2 × substrate solutions (50 mM HEPES pH7.2, 200 mM NaCl, 0.2 mM CaCl2, 0.4 mM DTT, 0.4 µM EDTA, 0.02% gelatin, 0.2% sodium cholate and 60 µM Compound 1) were added to each well of a 384-well plate (CONING #3573) containing 10 µl of purified PLCε (120 ng) and incubated with shaking at 30 °C for 3 h. After terminating the reaction by the addition of 2 µl of 5 mM EDTA, the fluorescence emission was measured at 520 nm with the excitation at 485 nm by a microplate reader (POLARstar Omega-25). For measuring inhibition by compounds for HTS, the reactions were conducted at RIKEN Center for Sustainable Resource Science (CSRS) as described above except that 5 µl of compound solution and 5 µl of purified PLCe (120 ng) were added to each well. Solution dispensing and fluorescence detection were conducted by using an automated dispenser (EDR-384, Biotec) and a hybrid multi-mode microplate reader (Synergy H4, Biotec), respectively. For determination of the IC50 values for ZPT and Zn^2+, the EDTA concentration was reduced to one-tenth to avoid its zinc-chelating effect. For assay of the other PLC classes, the reactions were performed similarly except that PLCβ4 (5 ng), PLCδ1 (0.1 ng) or PLCγ1 (0.3 ng) was used instead of PLCε.

IC50	SMILES	inhibitory activity toward PLCβ (Compound 1 as substrate, varying concentrations)
40 µM	COc1ccc2c(c[n+](C)c3c4cc5c(cc4ccc23)OCO5)c1OC [chelerythrine]	
3.7 µM	CCCCCCOc1ccc2c(c1)Oc1cc(OP(=O)(O)O[C@H]3[C@H](O)[C@@H](O)[C@H](OP(=O)(O)O)[C@@H](O)[C@H]3O)ccc1C21OC(=O)c2ccccc21 (stereo partly shown) [compound 1]	
	O=S(=O)([O-])[O-].[Zn+2] [ZnSO4]	without exhibiting any noticeable inhibitory activities

SMILES	IC50	inhibitory activity toward PLCβ (Compound 1 as substrate, varying concentrations)
C[n+]1cc2c3c(ccc2c2ccc4cc5c(cc4c21)OCO5)OCO3 [Sanguinarine, sanguinarine]	80 µM and 79.7 µM	
